Measured values published in patent US20250098679A1, “HERBICIDAL PYRIDONE DERIVATIVES” (SYNGENTA CROP PROTECTION AG, priority 2021, published 2025).

Legend:
Assay type in all cases: in vivo
Details in all cases: evaluated after 13 days
[1] = test system: Ipomoea hederacea (IPOHE); assay: Pre-emergence Test, Ipomoea hederacea (IPOHE)
[2] = test system: Setaria faberi (SETFA); assay: Pre-emergence Test, Setaria faberi (SETFA)
[3] = test system: Setaria faberi (SETFA); assay: Post-emergence Test, Setaria faberi (SETFA); parameters: key to percentage damage caused to the plant, SETFA (five-point scale): 5=81-100%, 4=61-80%, 3=41-60%, 2=21-40%, 1=0-20% damage
Procedure, shortened: (§1)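 Application was a spray of acetone/water (50:50) with 0.5% Tween 20 onto pots of test species sown in standard soil. Unless otherwise stated, the rate was 1000 g/ha. After 13 days under glasshouse conditions (24/16 °C, 65% humidity), injury was scored from 1 (0-20%) to 5 (81-100%).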

[4] = test system: Amaranthus retoflexus (AMARE); assay: Pre-emergence Test, Amaranthus retoflexus (AMARE)
[5] = test system: Zea mays (ZEAMX); assay: Post-emergence Test, Zea mays (ZEAMX); parameters: key to percentage damage caused to the plant, ZEAMX (five-point scale): 5=81-100%, 4=61-80%, 3=41-60%, 2=21-40%, 1=0-20% damage
Procedure, shortened: as §1

[6] = test system: Echinochloa crus-galli (ECHCG); assay: Post-emergence Test, Echinochloa crus-galli (ECHCG); parameters: key to percentage damage caused to the plant, ECHCG (five-point scale): 5=81-100%, 4=61-80%, 3=41-60%, 2=21-40%, 1=0-20% damage
Procedure, shortened: as §1

[7] = test system: Amaranthus palmeri (AMAPA); assay: Post-emergence Test, Amaranthus palmeri (AMAPA); parameters: key: 5=81-100%, 4=61-80%, 3=41-60%, 2=21-40%, 1=0-20% damage
Procedure, shortened: as §1

[8] = test system: Echinochloa crus-galli (ECHCG); assay: Pre-emergence Test, Echinochloa crus-galli (ECHCG)
[9] = test system: Amaranthus retoflexus (AMARE); assay: Post-emergence Test, Amaranthus retoflexus (AMARE); parameters: key to percentage damage caused to the plant, AMARE (five-point scale): 5=81-100%, 4=61-80%, 3=41-60%, 2=21-40%, 1=0-20% damage
Procedure, shortened: as §1

[10] = test system: Ipomoea hederacea (IPOHE); assay: Post-emergence Test, Ipomoea hederacea (IPOHE); parameters: key to percentage damage caused to the plant, IPOHE (five-point scale): 5=81-100%, 4=61-80%, 3=41-60%, 2=21-40%, 1=0-20% damage
Procedure, shortened: as §1

[11] = test system: Zea mays (ZEAMX); assay: Pre-emergence Test, Zea mays (ZEAMX)
[12] = test system: Amaranthus palmeri (AMAPA); assay: Pre-emergence Test, Amaranthus palmeri (AMAPA)

SMILES | Pre-emergence Test IPOHE, percentage damage caused to the plant (five-point scale) ([1]; 250 g/Ha (*)) | Pre-emergence Test IPOHE, percentage damage caused to the plant (five-point scale) ([1]; 1000 g/ha) | Pre-emergence Test SETFA, percentage damage caused to the plant (five-point scale) ([2]; 250 g/Ha (*)) | Pre-emergence Test SETFA, percentage damage caused to the plant (five-point scale) ([2]; 1000 g/ha) | percentage damage caused to the plant, SETFA (five-point scale) ([3]; 250 g/Ha) | percentage damage caused to the plant, SETFA (five-point scale) ([3]; 1000 g/ha) | Pre-emergence Test AMARE, percentage damage caused to the plant (five-point scale) ([4]; 250 g/Ha (*)) | Pre-emergence Test AMARE, percentage damage caused to the plant (five-point scale) ([4]; 1000 g/ha) | percentage damage caused to the plant, ZEAMX (five-point scale) ([5]; 250 g/Ha) | percentage damage caused to the plant, ZEAMX (five-point scale) ([5]; 1000 g/ha) | percentage damage caused to the plant, ECHCG (five-point scale) ([6]; 250 g/Ha) | percentage damage caused to the plant, ECHCG (five-point scale) ([6]; 1000 g/ha) | percentage damage caused to the plant, AMAPA (five-point scale) ([7]; 250 g/Ha) | percentage damage caused to the plant, AMAPA (five-point scale) ([7]; 1000 g/ha) | Pre-emergence Test ECHCG, percentage damage caused to the plant (five-point scale) ([8]; 250 g/Ha (*)) | Pre-emergence Test ECHCG, percentage damage caused to the plant (five-point scale) ([8]; 1000 g/ha) | percentage damage caused to the plant, AMARE (five-point scale) ([9]; 1000 g/ha) | percentage damage caused to the plant, IPOHE (five-point scale) ([10]; 1000 g/ha) | Pre-emergence Test ZEAMX, percentage damage caused to the plant (five-point scale) ([11]; 1000 g/ha) | Pre-emergence Test AMAPA, percentage damage caused to the plant (five-point scale) ([12]; 1000 g/ha) | also measured
CCn1c(Cn2cc(F)cn2)cc(=O)c(C(=O)O)c1-c1ccc(Cl)c(Cl)c1 [Compound 9, 2-(3,4-dichlorophenyl)-1-ethyl-6-[(4-fluoropyrazol-1-yl)methyl]-4-oxo-pyridine-3-carboxylic acid] | 1 (1=0-20%) | 0 | 5 (5=81-100%) | 5 (5=81-100%) | 4 (4=61-80%) | 3 (3=41-60%) | 0 | 1 (1=0-20%) | 0 | 2 (2=21-40%) | 3 (3=41-60%) | 4 (4=61-80%) | 0 | 1 (1=0-20%) | 5 (5=81-100%) | 5 (5=81-100%) | 0 | 1 (1=0-20%) | 0 | 2 (2=21-40%) | percentage damage caused to the plant, AMARE (five-point scale) ([9]; 250 g/Ha): 0; percentage damage caused to the plant, IPOHE (five-point scale) ([10]; 250 g/Ha): 3 (3=41-60%); Pre-emergence Test ZEAMX, percentage damage caused to the plant (five-point scale) ([11]; 250 g/Ha (*)): 0; Pre-emergence Test AMAPA, percentage damage caused to the plant (five-point scale) ([12]; 250 g/Ha (*)): 1 (1=0-20%)
CCOC(=O)c1c(-c2ccc(Cl)c(Cl)c2)n(CC)c(Cn2cnc(C(F)(F)F)n2)cc1=O [Compound 12, ethyl 2-(3,4-dichlorophenyl)-1-ethyl-4-oxo-6-[[3-(trifluoromethyl)-1,2,4-triazol-1-yl]methane]pyridine-3-carboxylate] | – | 0 | – | 0 | – | 1 (1=0-20%) | – | 0 | – | 1 (1=0-20%) | – | 1 (1=0-20%) | – | 2 (2=21-40%) | – | 0 | 1 (1=0-20%) | 2 (2=21-40%) | 0 | 0 | –
CCn1c(Cn2nc(C(F)(F)F)cc2C)cc(=O)c(C(=O)O)c1-c1ccc(Cl)c(Cl)c1 [Compound 13a, 2-(3,4-dichlorophenyl)-1-ethyl-6-[[5-methyl-3-(trifluoromethyl)pyrazol-1-yl]methyl]-4-oxo-pyridine-3-carboxylic acid] | 0 | 0 | 2 (2=21-40%) | 4 (4=61-80%) | 3 (3=41-60%) | 4 (4=61-80%) | 0 | 0 | 0 | 3 (3=41-60%) | 2 (2=21-40%) | 4 (4=61-80%) | 0 | 2 (2=21-40%) | 2 (2=21-40%) | 3 (3=41-60%) | 0 | 2 (2=21-40%) | 0 | 0 | percentage damage caused to the plant, AMARE (five-point scale) ([9]; 250 g/Ha): 1 (1=0-20%); percentage damage caused to the plant, IPOHE (five-point scale) ([10]; 250 g/Ha): 3 (3=41-60%); Pre-emergence Test ZEAMX, percentage damage caused to the plant (five-point scale) ([11]; 250 g/Ha (*)): 0; Pre-emergence Test AMAPA, percentage damage caused to the plant (five-point scale) ([12]; 250 g/Ha (*)): 1 (1=0-20%)
CCn1c(Cn2cc(Cl)cn2)cc(=O)c(C(=O)O)c1-c1ccc(Cl)c(Cl)c1 [Compound 14, 6-[(4-chloropyrazol-1-yl)methyl]-2-(3,4-dichlorophenyl)-1-ethyl-4-oxo-pyridine-3-carboxylic acid] | 0 | 0 | 3 (3=41-60%) | 5 (5=81-100%) | 2 (2=21-40%) | 4 (4=61-80%) | 0 | 1 (1=0-20%) | 1 (1=0-20%) | 1 (1=0-20%) | 1 (1=0-20%) | 4 (4=61-80%) | 1 (1=0-20%) | 3 (3=41-60%) | 4 (4=61-80%) | 5 (5=81-100%) | 1 (1=0-20%) | 3 (3=41-60%) | 0 | 1 (1=0-20%) | percentage damage caused to the plant, AMARE (five-point scale) ([9]; 250 g/Ha): 1 (1=0-20%); percentage damage caused to the plant, IPOHE (five-point scale) ([10]; 250 g/Ha): 3 (3=41-60%); Pre-emergence Test ZEAMX, percentage damage caused to the plant (five-point scale) ([11]; 250 g/Ha (*)): 0; Pre-emergence Test AMAPA, percentage damage caused to the plant (five-point scale) ([12]; 250 g/Ha (*)): 0
